Results: article PMC9017309, “Triazolopyrimidines Target Aerobic Respiration in Mycobacterium tuberculosis” (Antimicrobial Agents and Chemotherapy, 2022)
Values after ≈ are worked out from the molar mass of the structure shown.

Assays:
in vitro = conditions: human
human HepG2 cells = conditions: read-out: IC50 HepG2, Glucose; concentration reducing cell number by 50%, 3 days exposure, glucose as carbon source; cited from earlier work
[1] = tested on: M. tuberculosis in human THP-1 macrophages; assay: Activity against intracellular M. tuberculosis in THP-1 macrophages; format: cell-based; conditions: Mycobacterium tuberculosis, THP-1, 72 h, unit inferred, μM
[2] = tested on: M. tuberculosis H37Rv-LP (ATCC 25618); assay: MIC in liquid medium, parental strain; format: cell-based; conditions: Mycobacterium tuberculosis, 120 h, n in brackets
[3] = tested on: M. tuberculosis H37Rv ATCC 27294; assay: microbe, parasite or virus in culture; format: cell-based; conditions: Mycobacterium tuberculosis, 120 h; 5 days; read-out: MIC, H37Rv ATCC 27294 Parental
[4] = tested on: M. tuberculosis H37Rv-LP (ATCC 25618); assay: microbe, parasite or virus in culture; format: cell-based; conditions: Mycobacterium tuberculosis, 504 h, 24-well agar plates, 3 weeks, read-out: MIC on solid medium, H37Rv-LP
M. tuberculosis = format: cell-based, Mycobacterium tuberculosis; conditions: normalized to DMSO control

| Structure (SMILES) | IC50 (in vitro) | IC50 (human HepG2 cells) | IC50 [1] | MIC [2] | MIC [3] | MIC [4] | Effect on intracellular ATP levels (M. tuberculosis) |
| --- | --- | --- | --- | --- | --- | --- | --- |
| CCc1ccc(CCNc2cc(-c3ccccc3)nc3ncnn23)cc1 [TPN-0006290] | 33 µM | 49 µM | 0.18 ± 0.09 µM | – | – | – | – |
| FC(F)(F)c1ccc(CCNc2cc(-c3ccccc3)nc3ncnn23)cc1 [TPN-0006243] | > 100 µM | > 100 µM | – | 3.7 ± 2.9 µM (≈ 1.42 µg/mL) | 2.2 ± 0.9 µM (≈ 0.843 µg/mL) | – | – |
| Clc1ccc(CCNc2cc(-c3ccccn3)nc3ncnn23)cc1 [TPN-0006273] | 76 µM | 100 µM | 0.19 ± 0.13 µM | – | – | – | – |
| COc1ccc(CCNc2cc(-c3ccccn3)nc3ncnn23)cc1 [TPN-0006239] | 73 µM | > 100 µM | – | 1.1 ± 0.5 µM (≈ 0.381 µg/mL) | 9.5 ± 3.5 µM (≈ 3.29 µg/mL) | 1.6 µM (≈ 0.554 µg/mL) | – |
| FC(F)(F)c1ccc(CCNc2cc(-c3ccccn3)nc3ncnn23)cc1 [TPN-0006267] | > 100 µM | > 100 µM | 0.21 ± 0.11 µM | 1.4 ± 1.4 µM (≈ 0.538 µg/mL) | – | 1.6 µM (≈ 0.615 µg/mL) | – |
| Cc1ccc(CCNc2cc(-c3ccccc3)nc3ncnn23)cc1 [TPN-0006245] | 39 µM | 58 µM | – | 2 ± 1.1 µM (≈ 0.659 µg/mL) | – | – | – |
| CCc1ccc(CCNc2cc(-c3ccccn3)nc3ncnn23)cc1 [TPN-0006288] | 23 µM | 44 µM | 0.076 ± 0.032 µM | – | – | – | – |
| COc1ccc(CCNc2cc(-c3ccccc3)nc3ncnn23)cc1 [TPN-0006218] | 65 µM | > 100 µM | 0.23 ± 0.08 µM | 2.6 ± 1.3 µM (≈ 0.898 µg/mL) | – | – | – |
| NC[C@H]1O[C@H](O[C@H]2[C@H](O)[C@@H](O[C@H]3O[C@H](CO)[C@@H](O)[C@H](N)[C@H]3O)[C@H](N)C[C@@H]2N)[C@H](O)[C@@H](O)[C@@H]1O [kanamycin] | – | – | – | – | – | – | Depletion of ATP was not seen |
| CCc1nc2ccc(Cl)cn2c1C(=O)NCc1ccc(N2CCC(c3ccc(OC(F)(F)F)cc3)CC2)cc1 [Molecule Q203, Q203] | – | – | – | – | – | – | depletion of ATP levels at concentrations lower than the MIC |
